Consider six molecules from PMC13077713 (Journal of medicinal chemistry, 2025).

Molecules are shown by their SMILES. Some results are limits rather than exact numbers.

A word on the EC50: it is the concentration that produces a half-maximal response. The EC90 is the concentration needed for an effect of 90%. What is called CC50 is the concentration giving 50% cytotoxicity.

The test system of data set [1] is HBV DNA production in HepAD38 cells. Briefly: Anti-HBV activity. In kind it is cell-based, Hepatitis B virus (HBV). The note with it: for EC50: read-out: Anti-HBV activity EC50; for EC50 / EC90: HBV DNA production, HepAD38 cells; for EC90: read-out: Anti-HBV activity EC90.
In data set [2] the test system is human peripheral blood mononuclear (PBM) cells. Briefly: Cytotoxicity, CellTiter 96 cell proliferation assay, PBM cells. In kind it is cell-based. Particulars: read-out: Cytotoxicity, CC50 PBM; PBM cells.
The test system of data set [3] is human T lymphoblast (CEM) cells. Briefly: Cytotoxicity, CellTiter 96 cell proliferation assay, CEM cells. In kind it is cell-based. The note with it: read-out: Cytotoxicity, CC50 CEM; CEM cells.
The test system of data set [4] is African green monkey kidney (Vero) cells. Briefly: Cytotoxicity, CellTiter 96 cell proliferation assay, Vero cells. In kind it is cell-based. Particulars: read-out: Cytotoxicity, CC50 Vero; Vero cells.
Data set [5] deals with human hepatocellular carcinoma (HepG2) cells. Briefly: Cytotoxicity, CellTiter 96 cell proliferation assay, HepG2 cells. The note with it: read-out: Cytotoxicity, CC50 HepG2; HepG2 cells. In kind it is cell-based.
Data set [6] deals with Cp149 dimers (Hepatitis B virus genotype D subtype ayw, UniProt P03146).
Cp149 dimers, sequence (P03146 1-149): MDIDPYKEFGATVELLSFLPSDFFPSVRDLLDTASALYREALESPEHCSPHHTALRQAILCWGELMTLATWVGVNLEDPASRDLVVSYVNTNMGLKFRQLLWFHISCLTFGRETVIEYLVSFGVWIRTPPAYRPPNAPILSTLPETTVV

As to `Cc1c(C(=O)C(=O)NCc2cn(CCCCCCn3cc(CNC(=O)C(=O)c4c(C)c(C(=O)Nc5ccc(F)c(F)c5)n(C)c4C)nn3)nn2)c(C)n(C)c1C(=O)Nc1ccc(F)c(F)c1` [Compound 6a, 4,4’-(2,2’-(((Hexane-1,6-diylbis(1H-1,2,3-triazole-1,4-diyl))bis(methylene))bis(azanediyl))bis(2-oxoacetyl))bis(N-(3,4-difluorophenyl)-1,3,5-trimethyl-1H-pyrrole-2-carboxamide)], the EC50 in data set [1] was determined as 0.285 ± 0.021 µM. For the same molecule, in data set [1], the EC90 is greater than 10 µM. Also, the CC50 in data set [2], in data set [3], in data set [4] and in data set [5] was greater than 100 µM throughout.
Turning to `Cc1c(C(=O)C(=O)NCc2cn(CCCCCCCCn3cc(CNC(=O)C(=O)c4c(C)c(C(=O)Nc5ccc(F)c(F)c5)n(C)c4C)nn3)nn2)c(C)n(C)c1C(=O)Nc1ccc(F)c(F)c1` [Compound 6b, 4,4’-(2,2’-(((Octane-1,8-diylbis(1H-1,2,3-triazole-1,4-diyl))bis(methylene))bis(azanediyl))bis(2-oxoacetyl))bis(N-(3,4-difluorophenyl)-1,3,5-trimethyl-1H-pyrrole-2-carboxamide)], in data set [1], the concentration for a half-maximal effect (EC50) came to 0.438 ± 0.211 µM. Besides, in data set [1], the EC90 is 5.52 µM. Besides, the 50% cytotoxic concentration (CC50) in data set [2], in data set [3], in data set [4] and in data set [5] was greater than 100 µM in each case.
Regarding `Cc1c(C(=O)C(=O)NCc2cn(CCCCCCCCCCn3cc(CNC(=O)C(=O)c4c(C)c(C(=O)Nc5ccc(F)c(F)c5)n(C)c4C)nn3)nn2)c(C)n(C)c1C(=O)Nc1ccc(F)c(F)c1` [Compound 6c, 4,4’-(2,2’-(((Decane-1,10-diylbis(1H-1,2,3-triazole-1,4-diyl))bis(methylene))bis(azanediyl))bis (2-oxoacetyl))bis(N-(3,4-difluorophenyl)-1,3,5-trimethyl-1H-pyrrole-2-carboxamide)], the EC50 in data set [1] stood at 0.004 ± 0.001 µM. In addition, the EC90 in data set [1] worked out at 0.14 ± 0.11 µM. The CC50 in data set [2], in data set [3], in data set [4] and in data set [5] was greater than 100 µM in each case.
Consider `Cc1c(C(=O)C(=O)NCc2cn(CCCCCCCCCCCCn3cc(CNC(=O)C(=O)c4c(C)c(C(=O)Nc5ccc(F)c(F)c5)n(C)c4C)nn3)nn2)c(C)n(C)c1C(=O)Nc1ccc(F)c(F)c1` [Compound 6d, 4,4’-(2,2’-(((Dodecane-1,12-diylbis(1H-1,2,3-triazole-1,4-diyl))bis (methylene))bis(azanediyl))bis(2-oxoacetyl))bis(N-(3,4-difluorophenyl)-1,3,5-trimethyl-1H-pyrrole-2-carboxamide)], for which the “times more potent than reference compound GLP-26” value in data set [1] (HepAD38 EC50 vs GLP-26) was 80 times. Further, the EC50 in data set [1] stood at 0.0001 µM. In data set [1], the EC90 stood at 0.008 ± 0.001 µM. Besides, the CC50 is 63.4 ± 40.6 µM in data set [2], 42.8 ± 0.6 µM in data set [3], greater than 100 µM in data set [4] and greater than 100 µM in data set [5].
As to `Cc1c(C(=O)C(=O)NCc2cn(CCCCCCCCCCCCCCCCn3cc(CNC(=O)C(=O)c4c(C)c(C(=O)Nc5ccc(F)c(F)c5)n(C)c4C)nn3)nn2)c(C)n(C)c1C(=O)Nc1ccc(F)c(F)c1` [Compound 6f, 4,4’-(2,2’-(((Hexadecane-1,16-diylbis(1H-1,2,3-triazole-1,4-diyl))bis(methylene))bis(azanediyl))bis(2-oxoacetyl))bis(N-(3,4-difluorophenyl)-1,3,5-trimethyl-1H-pyrrole-2-carboxamide)], the “times less potent than GLP-26” value in data set [1] (HepAD38 vs GLP-26) was 2–3 times. In data set [1], the EC50 turned out to be 0.018 ± 0.011 µM. The EC90 in data set [1] is 0.13 ± 0.06 µM. For the same molecule, the CC50 in data set [2], in data set [3], in data set [4] and in data set [5] was greater than 100 µM in each case.
Turning to `Cc1cc(NC(=O)c2cccc(S(=O)(=O)N[C@H]3CCOC3)c2)ccc1F` [JNJ-632], the “Subunit binding energies −Δg” value in data set [6] is 15.8 kT. In data set [6] (ρ = 3, 30 μM subunits, 200 mM ammonium acetate, 37°C, ρ = 0: 176 ± 6 Å), the “Rgw (mean radius of gyration, plateau)” value is recorded as 176 ± 0.5 Å. Moreover, the “〈N〉w∞ (mean aggregation number at equilibrium)” value in data set [6] (ρ = 3, 30 μM subunits, 200 mM ammonium acetate, ρ = 0: 156 ± 6) was found to be 150 ± 4. Also, the “Associated timescale of Rgw” value in data set [6] (ρ = 3, 30 μM subunits, 200 mM ammonium acetate, ρ = 0: 237 ± 62 ms) came to 100 ± 24 ms. For the same molecule, in data set [6] (ρ = 3, 30 μM subunits, 200 mM ammonium acetate, ρ = 0: 699 ± 138 ms), the “Associated timescale of 〈N〉w” value came out at 273 ± 46 ms.
